Assay results from patent US20230072854A1, “PARAXANTHINE-BASED BIOACTIVE COMPOSITION AND METHOD OF USE THEREOF” (Ingenious Ingredients, LP, priority 2020, published 2023).

What was measured:
volunteers [1] = test: Sternberg task test, double blind crossover vs placebo; assay type: in vivo, human; details: 200 mg; for Sternberg Mean Response Time: in ms (unit assumed)
Source text: (§1) In a double blind, randomized, crossover, and repeated measures manner, 13 volunteers (10 male, 3 female, average age 24±5 years, average body weight 72.91±19.30 kg, average height 169.96±11.84 cm, average BMI 24.80±3.71 kg/m^2) participated in this study. Participants limited ingestion of caffeine and other stimulants to normal use for 48-hours, fasted for 8-hours and reported to the lab and completed 4 different cognitive function tests to assess short-term attention and inhibitory control (Go-No Go Test), sustained attention (Vigilance Task Test), working memory (Sternberg Task Test) and cognitive flexibility (Berg-Washington Card Sorting Test). Once completed, the participants ingested either a placebo or 200 mg of paraxanthine (WGI, TX, USA) with 8 ounces of water. Participants repeated cognitive function tests 1, 2, 3, 4, 5, and 6 hours after ingestion of the supplement. After one-week participants repeated the experiment while consuming the other treatment.
(§2) Data were analyzed by a General Linear Model multivariate and univariate analyses with repeated measures using body weight as a covariate. Data are expressed as means±standard deviations for the placebo (PLA) and Paraxanthine (PrX). Greenhouse-Geisser univariate p-levels are listed for time (T), weight×time (W×T) and group×time (G×T) interactions effects. Pairwise comparison is indicated by the following superscripts: †=[…] difference from baseline value; *=[…] difference from baseline; a=[…] difference between groups; b=[…] difference between groups. Eta2 vaules of […] are considered small, […] medium, and >0.14 are considered large.
A test of working memory, ability to make use of short-term memory. A lower reaction time means participants can access their working memory faster. The Sternberg Task test is a widely used paradigm for studying short-term/working memory (STM/WM) involving cognitive control processes.

volunteers [2] = test: Psychomotor vigilance task test, double blind crossover vs placebo; assay type: in vivo, human; details: 200 mg
Source text: as §1, §2
The psychomotor vigilance task test is a sustained attention, reaction timed task that measures the speed with which participants respond to a visual stimulus. Lower Reaction time, especially maintained throughout this many tests represents better ability to sustain attention.

For Cn1c(=O)[nH]c2ncn(C)c2c1=O [paraxanthine, 1,7-dimethylxanthine], the “letter length 2 present reaction time (FIG. 18)” value (volunteers [1]) was “significantly improved reaction times”, the “letter length 4 absent reaction time (FIG. 16)” value (volunteers [1]) was “no significant differences over time or between treatments” and the “letter length 4 present reaction time (FIG. 19)” value (volunteers [1]) was “no significant differences over time or between treatments, with Paraxanthine showing greater improvements during hours 3-6”. The “letter length 6 absent reaction time (FIG. 17)” value (volunteers [1]) was “no significant differences over time or between treatments, with Paraxanthine showing greater improvement during hours 3-5”, the “Letter Length 2: Absent Reaction Time (Millisecond)” value (volunteers [1]; Mean (SEM) over all hours) was 577.6 ± 27.1 Millisecond and the “Letter Length 2: Present Reaction Time (Millisecond)” value (volunteers [1]; Mean (SEM) over all hours) was 503.5 ± 17.8 Millisecond. For the same molecule, the “Letter Length 4: Absent Reaction Time (Millisecond)” value (volunteers [1]; Mean (SEM) over all hours) was 741.3 ± 40.0 Millisecond, the “Letter Length 4: Present Reaction Time (Millisecond)” value (volunteers [1]; Mean (SEM) over all hours) was 617.9 ± 25.1 Millisecond and the “Letter Length 6: Absent Reaction Time (Millisecond)” value (volunteers [1]; Mean (SEM) over all hours) was 970.0 ± 55.7 Millisecond. For the same molecule, the “Letter Length 6: Present Reaction Time (Millisecond)” value (volunteers [1]; Mean (SEM) over all hours) was 808.2 ± 40.2 Millisecond, the “Sternberg Mean Response Time” value (volunteers [1]; Mean (SEM) over all hours) was 703.1 ± 32.4 and the “short-term/working memory, letter length 6 present reaction time” value (volunteers [1]; after 4 and 5 hours) was “significantly increased short-term/working memory”. For the same molecule, the “Letter Length 2: Absent Reaction Time (Millisecond)” value (volunteers [1]; hour 0 (before ingestion)) was 621.9 ± 154.3 Millisecond, the “Letter Length 2: Present Reaction Time (Millisecond)” value (volunteers [1]; hour 0 (before ingestion)) was 541.1 ± 104.2 Millisecond and the “Letter Length 4: Absent Reaction Time (Millisecond)” value (volunteers [1]; hour 0 (before ingestion)) was 748.7 ± 148.5 Millisecond. The “Letter Length 4: Present Reaction Time (Millisecond)” value (volunteers [1]; hour 0 (before ingestion)) was 625.9 ± 100.6 Millisecond, the “Letter Length 6: Absent Reaction Time (Millisecond)” value (volunteers [1]; hour 0 (before ingestion)) was 1,012.5 ± 334.2 Millisecond and the “Letter Length 6: Present Reaction Time (Millisecond)” value (volunteers [1]; hour 0 (before ingestion)) was 841.6 ± 254.0 Millisecond. The “Sternberg Mean Response Time” value (volunteers [1]; hour 0 (before ingestion)) was 731.9 ± 163.0, the “Letter Length 2: Absent Reaction Time (Millisecond)” value (volunteers [1]; hour 1 after ingestion) was 596.7 Millisecond and the “Letter Length 2: Present Reaction Time (Millisecond)” value (volunteers [1]; hour 1 after ingestion) was 516.6 Millisecond. For the same molecule, the “Letter Length 4: Absent Reaction Time (Millisecond)” value (volunteers [1]; hour 1 after ingestion) was 755.5 Millisecond, the “Letter Length 4: Present Reaction Time (Millisecond)” value (volunteers [1]; hour 1 after ingestion) was 642.9 Millisecond and the “Letter Length 6: Absent Reaction Time (Millisecond)” value (volunteers [1]; hour 1 after ingestion) was 986.5 Millisecond. The “Letter Length 6: Present Reaction Time (Millisecond)” value (volunteers [1]; hour 1 after ingestion) was 829.7 Millisecond, the “Sternberg Mean Response Time” value (volunteers [1]; hour 1 after ingestion) was 721.3 and the “Letter Length 2: Absent Reaction Time (Millisecond)” value (volunteers [1]; hour 2 after ingestion) was 579.7 Millisecond. For the same molecule, the “Letter Length 2: Present Reaction Time (Millisecond)” value (volunteers [1]; hour 2 after ingestion) was 503.8 Millisecond, the “Letter Length 4: Absent Reaction Time (Millisecond)” value (volunteers [1]; hour 2 after ingestion) was 758.4 Millisecond and the “Letter Length 4: Present Reaction Time (Millisecond)” value (volunteers [1]; hour 2 after ingestion) was 614.7 Millisecond. For the same molecule, the “Letter Length 6: Absent Reaction Time (Millisecond)” value (volunteers [1]; hour 2 after ingestion) was 1,011.3 Millisecond, the “Letter Length 6: Present Reaction Time (Millisecond)” value (volunteers [1]; hour 2 after ingestion) was 800.0 Millisecond and the “Sternberg Mean Response Time” value (volunteers [1]; hour 2 after ingestion) was 711.3. The “letter length 2 absent reaction time (FIG. 15)” value (volunteers [1]; hour 3, 4 and 5) was “trend towards improved reaction times”, the “Letter Length 2: Absent Reaction Time (Millisecond)” value (volunteers [1]; hour 3 after ingestion) was 559.3 Millisecond and the “Letter Length 2: Present Reaction Time (Millisecond)” value (volunteers [1]; hour 3 after ingestion) was 497.1 Millisecond. For the same molecule, the “Letter Length 4: Absent Reaction Time (Millisecond)” value (volunteers [1]; hour 3 after ingestion) was 762.3 Millisecond, the “Letter Length 4: Present Reaction Time (Millisecond)” value (volunteers [1]; hour 3 after ingestion) was 634.6 Millisecond and the “Letter Length 6: Absent Reaction Time (Millisecond)” value (volunteers [1]; hour 3 after ingestion) was 980.9 Millisecond. The “Letter Length 6: Present Reaction Time (Millisecond)” value (volunteers [1]; hour 3 after ingestion) was 830.6 Millisecond, the “Sternberg Mean Response Time” value (volunteers [1]; hour 3 after ingestion) was 710.8 and the “Letter Length 2: Absent Reaction Time (Millisecond)” value (volunteers [1]; hour 4 after ingestion) was 553.8 Millisecond. For the same molecule, the “Letter Length 2: Present Reaction Time (Millisecond)” value (volunteers [1]; hour 4 after ingestion) was 488.3 Millisecond, the “Letter Length 4: Absent Reaction Time (Millisecond)” value (volunteers [1]; hour 4 after ingestion) was 701.3 Millisecond and the “Letter Length 4: Present Reaction Time (Millisecond)” value (volunteers [1]; hour 4 after ingestion) was 598.2 Millisecond. For the same molecule, the “Letter Length 6: Absent Reaction Time (Millisecond)” value (volunteers [1]; hour 4 after ingestion) was 914.8 Millisecond, the “Letter Length 6: Present Reaction Time (Millisecond)” value (volunteers [1]; hour 4 after ingestion) was 778.1 Millisecond and the “Sternberg Mean Response Time” value (volunteers [1]; hour 4 after ingestion) was 672.4. The “Letter Length 2: Absent Reaction Time (Millisecond)” value (volunteers [1]; hour 5 after ingestion) was 558.8 Millisecond, the “Letter Length 2: Present Reaction Time (Millisecond)” value (volunteers [1]; hour 5 after ingestion) was 490.3 Millisecond and the “Letter Length 4: Absent Reaction Time (Millisecond)” value (volunteers [1]; hour 5 after ingestion) was 717.5 Millisecond. For the same molecule, the “Letter Length 4: Present Reaction Time (Millisecond)” value (volunteers [1]; hour 5 after ingestion) was 617.1 Millisecond, the “Letter Length 6: Absent Reaction Time (Millisecond)” value (volunteers [1]; hour 5 after ingestion) was 913.5 Millisecond and the “Letter Length 6: Present Reaction Time (Millisecond)” value (volunteers [1]; hour 5 after ingestion) was 761.8 Millisecond. The “Sternberg Mean Response Time” value (volunteers [1]; hour 5 after ingestion) was 676.5, the “Letter Length 2: Absent Reaction Time (Millisecond)” value (volunteers [1]; hour 6 after ingestion) was 568.9 Millisecond and the “Letter Length 2: Present Reaction Time (Millisecond)” value (volunteers [1]; hour 6 after ingestion) was 483.8 Millisecond. The “Letter Length 4: Absent Reaction Time (Millisecond)” value (volunteers [1]; hour 6 after ingestion) was 742.2 Millisecond, the “Letter Length 4: Present Reaction Time (Millisecond)” value (volunteers [1]; hour 6 after ingestion) was 590.3 Millisecond and the “Letter Length 6: Absent Reaction Time (Millisecond)” value (volunteers [1]; hour 6 after ingestion) was 970.7 Millisecond. The “Letter Length 6: Present Reaction Time (Millisecond)” value (volunteers [1]; hour 6 after ingestion) was 816.4 Millisecond, the “Sternberg Mean Response Time” value (volunteers [1]; hour 6 after ingestion) was 695.4 and the “letter length 6 present reaction time (FIG. 20)” value (volunteers [1]; hours 4 and 5) was “improved present reaction time”. For the same molecule, the “decrease of mean response times in the Sternberg Test compared to baseline” value (volunteers [1]; overall, vs baseline) was 3.9%, the “Trial #2 reaction time (FIG. 11)” value (volunteers [2]) was “maintained reaction time” and the “Trial #10 reaction time (FIG. 12)” value (volunteers [2]) was “no significant time or between treatment differences”. The “effect on average reaction times in the vigilance task test” value (volunteers [2]) was “no effect”, the “Reaction Time (milliseconds) Average” value (volunteers [2]; Mean (SEM) over all hours) was 2,550 milliseconds and the “Reaction Time (milliseconds) Trial #2” value (volunteers [2]; Mean (SEM) over all hours) was 2,659 milliseconds. The “Reaction Time (milliseconds) Trial #10” value (volunteers [2]; Mean (SEM) over all hours) was 2,639 milliseconds, the “Reaction Time (milliseconds) Trial #20” value (volunteers [2]; Mean (SEM) over all hours) was 2,590 milliseconds and the “Reaction Time (milliseconds) Average” value (volunteers [2]; hour 0 (before ingestion)) was 2,546 milliseconds. The “Reaction Time (milliseconds) Trial #2” value (volunteers [2]; hour 0 (before ingestion)) was 2,601 milliseconds, the “Reaction Time (milliseconds) Trial #10” value (volunteers [2]; hour 0 (before ingestion)) was 2,607 milliseconds and the “Reaction Time (milliseconds) Trial #20” value (volunteers [2]; hour 0 (before ingestion)) was 2,680 milliseconds. The “Reaction Time (milliseconds) Average” value (volunteers [2]; hour 1 after ingestion) was 2,552 milliseconds, the “Reaction Time (milliseconds) Trial #2” value (volunteers [2]; hour 1 after ingestion) was 2,602 milliseconds and the “Reaction Time (milliseconds) Trial #10” value (volunteers [2]; hour 1 after ingestion) was 2,418 milliseconds. For the same molecule, the “Reaction Time (milliseconds) Trial #20” value (volunteers [2]; hour 1 after ingestion) was 2,458 milliseconds, the “Reaction Time (milliseconds) Average” value (volunteers [2]; hour 2 after ingestion) was 2,508 milliseconds and the “Reaction Time (milliseconds) Trial #2” value (volunteers [2]; hour 2 after ingestion) was 3,005 milliseconds. For the same molecule, the “Reaction Time (milliseconds) Trial #10” value (volunteers [2]; hour 2 after ingestion) was 2,651 milliseconds, the “Reaction Time (milliseconds) Trial #20” value (volunteers [2]; hour 2 after ingestion) was 2,220 milliseconds and the “Reaction Time (milliseconds) Average” value (volunteers [2]; hour 3 after ingestion) was 2,559 milliseconds. The “Reaction Time (milliseconds) Trial #2” value (volunteers [2]; hour 3 after ingestion) was 2,591 milliseconds, the “Reaction Time (milliseconds) Trial #10” value (volunteers [2]; hour 3 after ingestion) was 2,788 milliseconds and the “Reaction Time (milliseconds) Trial #20” value (volunteers [2]; hour 3 after ingestion) was 2,445 milliseconds. The “Reaction Time (milliseconds) Average” value (volunteers [2]; hour 4 after ingestion) was 2,538 milliseconds, the “Reaction Time (milliseconds) Trial #2” value (volunteers [2]; hour 4 after ingestion) was 3,005 milliseconds and the “Reaction Time (milliseconds) Trial #10” value (volunteers [2]; hour 4 after ingestion) was 2,412 milliseconds. For the same molecule, the “Reaction Time (milliseconds) Trial #20” value (volunteers [2]; hour 4 after ingestion) was 2,792 milliseconds, the “Reaction Time (milliseconds) Average” value (volunteers [2]; hour 5 after ingestion) was 2,570 milliseconds and the “Reaction Time (milliseconds) Trial #2” value (volunteers [2]; hour 5 after ingestion) was 2,441 milliseconds. For the same molecule, the “Reaction Time (milliseconds) Trial #10” value (volunteers [2]; hour 5 after ingestion) was 2,783 milliseconds, the “Reaction Time (milliseconds) Trial #20” value (volunteers [2]; hour 5 after ingestion) was 2,544 milliseconds and the “Reaction Time (milliseconds) Average” value (volunteers [2]; hour 6 after ingestion) was 2,577 milliseconds. For the same molecule, the “Reaction Time (milliseconds) Trial #2” value (volunteers [2]; hour 6 after ingestion) was 2,360 milliseconds, the “Reaction Time (milliseconds) Trial #10” value (volunteers [2]; hour 6 after ingestion) was 2,813 milliseconds and the “Reaction Time (milliseconds) Trial #20” value (volunteers [2]; hour 6 after ingestion) was 3,005 milliseconds.
